Results as given in US10201556B2, “Combination for use in treating diseases or conditions associated with melanoma, or treating diseases or conditions associated with activated B-raf pathway” (InteRNA Technologies B.V., priority 2012, dated 2019).
“Also recorded” adds a separate entry of the source.

Assays:
Format in all cases: cell-based, human
CDK4 = assay: Western immunoblotting of CDK4 protein levels
Protocol: (§1) A375Hu cells were seeded in 6-well plates and transfected with different concentrations (1, 10 and 100 nM) of synthetic hsa-miR-3157 or BRAF siRNA (100 nM) using RNAiMAX (7.5 μl/well). As control a scrambled miRNA and a non-targeting siRNA pool were included. Proteins were harvested 72 hrs post transfection using RIPA buffer supplemented with HALT™ Phosphatase Inhibitor (Thermo Scientific) and Protease Inhibitor Cocktail (Sigma). Fifteen μg protein was loaded on 7.5% TGX acrylamide gels (Bio-Rad) and subsequently transferred to PVDF membranes. The membranes were blocked in 5% milk in TBS-T and incubated O/N at 4° C. with primary antibodies to bRAF, total ERK1/2, phosphoERK1/2, CDK4, BCL2 and tubulin (Santa Cruz). After incubation with secondary goat-anti-mouse antibodies (Santa Cruz), membranes were developed using ECL (Pierce).
as §1, with “concentrations” for “concentrations (1, 10 and 100 nM)”, “vemurafenib (PLX-4032, 0.01, 0.1, 1 uM).” for “synthetic hsa-miR-3157 or BRAF siRNA (100 nM) using RNAiMAX (7.5 μl/well). As control a scrambled miRNA and a non-targeting siRNA pool were included.”
(§2) A2058 cells were seeded in 6-well plates and transfected with different concentrations (1, 10 and 100 nM) of synthetic hsa-miR-3157-5p or BRAF siRNA using X-TremeGene (Roche, 15 μl/well). As control a scrambled miRNA was included. Proteins were harvested 72 hrs post transfection using RIPA buffer supplemented with HALT™ Phosphatase Inhibitor (Thermo Scientific) and Protease Inhibitor Cocktail (Sigma). Fifteen μg protein was loaded on 10% TGX acrylamide gels (Bio-Rad) and subsequently transferred to PVDF membranes. The membranes were blocked in 5% milk in TBS-T and incubated O/N at 4° C. with primary antibodies to bRAF, total ERK1/2, phosphoERK1/2, BCL2, CDK4 and tubulin (Santa Cruz). After incubation with secondary goat-anti-mouse antibodies (Santa Cruz), membranes were developed using ECL (Pierce).
(§3) Transfection was performed as described in Example 4 in 6-well format. Proteins were isolated using RIPA buffer (50 mM Tris pH 8.0, 150 mM NaCL, 1% NP-40, 0.5% Sodium deoxycholate, 0.1% SDS), supplemented with Protease Inhibitor Cocktail (Sigma) and Halt™ Phosphatase Inhibitor Cocktail (Pierce/Thermo Scientific). Fifteen μg protein was loaded on a 12% Mini-PROTEAN® TGX™ Precast Gel (Bio-Rad), and proteins were transferred to Immun-Blot PVDF Membrane (Bio-Rad). Membranes were blocked in 5% milk or 5% BSA in TBS-T, and incubated O/N at 4° C. with primary antibodies against α-tubulin (1:5000), BRAF, pERK1/2, CDK4, RRM2 (all 1:1000), BCL-2 (1:500) (Santa Cruz), total-ERK1/2 (1:2000), BIRC5, AURKB (1:1000) (Cell Signaling), ERK1 (1:2000) (GeneTex). After incubation with appropriate secondary antibodies and western blot chemiluminescence substrate ECL (Pierce/Thermo Scientific), membranes were exposed to CL-XPosure Film (Pierce/Thermo Scientific).

AURKB = assay: Western blotting of AURKB protein levels
Protocol: as §3

RRM2 = assay: Western blotting of RRM2 protein levels
Protocol: as §3

BIRC5 = assay: Western blotting of BIRC5 protein levels
Protocol: as §3

BCL2 = assay: Western immunoblotting of BCL2 protein levels
Protocol: (§4) As control a scrambled miRNA and a non-targeting siRNA pool were included. Proteins were harvested 72 hrs post transfection using RIPA buffer supplemented with HALT™ Phosphatase Inhibitor (Thermo Scientific) and Protease Inhibitor Cocktail (Sigma). […] The membranes were blocked in 5% milk in TBS-T and incubated O/N at 4° C. with primary antibodies to bRAF, total ERK1/2, phosphoERK1/2, CDK4, BCL2 and tubulin (Santa Cruz). After incubation with secondary goat-anti-mouse antibodies (Santa Cruz), membranes were developed using ECL (Pierce).
as §4, with “Proteins” for “As control a scrambled miRNA and a non-targeting siRNA pool were included. Proteins”
as §2, with “As” for “A2058 cells were seeded in 6-well plates and transfected with different concentrations (1, 10 and 100 nM) of synthetic hsa-miR-3157-5p or BRAF siRNA using X-TremeGene (Roche, 15 μl/well). As”
as §3, with “Proteins” for “Transfection was performed as described in Example 4 in 6-well format. Proteins”, “Fifteen μg protein was loaded on a 12% Mini-PROTEAN® TGX™ Precast Gel (Bio-Rad), and proteins were transferred to Immun-Blot PVDF Membrane (Bio-Rad).” left out

[1] = A375Hu cells, 72 hrs, Western blot, listed as PLX-4032
[2] = vemurafenib-resistant A2058, M249-AR4 and M376, 1 μM, 24 hrs (FIG. 14b)
[3] = vemurafenib-sensitive A375 and M249, 1 μM, 24 hrs (FIG. 14b)
[4] = A375Hu cells, 72 hrs, Western blot
[5] = A375 cells, increasing concentrations of mimic (FIG. 12c)
[6] = A2058 cells (vemurafenib resistant), 72 hrs post transfection, Western blot
[7] = A2058, M249, M249-AR4 and M376, increasing concentrations of mimic (FIG. 14a)

CCCS(=O)(=O)Nc1ccc(F)c(C(=O)c2c[nH]c3ncc(-c4ccc(Cl)cc4)cc23)c1F [Vemurafenib, N-(3-{[5-(4-chlorophenyl)-1H-pyrrolo[2,3-b]pyridin-3-yl]carbonyl}-2,4-difluorophenyl)propane-1-sulfonamide]
CDK4 protein levels (CDK4; [1]): not in reduction of CDK4 and BCL2 protein levels | AURKB protein levels (AURKB; [2]): protein levels similar to control-treated cells | AURKB protein levels (AURKB; [3]): downregulated | RRM2 protein levels (RRM2; [2]): protein levels similar to control-treated cells | RRM2 protein levels (RRM2; [3]): downregulated | BIRC5 protein levels (BIRC5; [2]): protein levels similar to control-treated cells | BIRC5 protein levels (BIRC5; [3]): downregulated | BCL2 protein levels (BCL2; [4]): but not CDK4 or BCL2 | BCL2 protein levels (BCL2; [1]): not in reduction of CDK4 and BCL2 protein levels

hsa-miR-3157-5p: mature miRNA mimic, SEQ ID NO 6 UUCAGCCAGGCUAGUGCAGUCU (listed as RNA, chemistry not given here)
CDK4 protein levels (CDK4; [4]): significant reduction in CDK4 protein levels; also recorded: down-regulated | CDK4 protein levels (CDK4; [5]): strong reduction | CDK4 protein levels (CDK4; A2058, increasing concentrations of mimic (FIG. 14a)): mild effect | CDK4 protein levels (CDK4; [6]): reduction; also recorded: down-regulated | CDK4 protein levels (CDK4; M249-AR4, increasing concentrations of mimic (FIG. 14a)): no effect | CDK4 protein levels (CDK4; M249 and M376, increasing concentrations of mimic (FIG. 14a)): strong downregulation | AURKB protein levels (AURKB; [5]): most pronounced | AURKB protein levels (AURKB; [7]): strongly downregulated | RRM2 protein levels (RRM2; [5]): most pronounced | RRM2 protein levels (RRM2; [7]): strongly downregulated | BIRC5 protein levels (BIRC5; [5]): most pronounced | BIRC5 protein levels (BIRC5; [7]): strong downregulation | BCL2 protein levels (BCL2; [4]): significant reduction in BCL2 protein levels; also recorded: down-regulated | BCL2 protein levels (BCL2; [5]): strong reduction | BCL2 protein levels (BCL2; [7]): no effect | BCL2 protein levels (BCL2; [6]): reduction; also recorded: down-regulated
